Results published in PubChem BioAssay (NCI).
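96-well plates; 48 h exposure; 5 concentrations. Endpoints by linear interpolation between flanking doses. Not reached: highest tested concentration assigned. GI50 = concentration required for 50% inhibition of growth. TGI denotes the concentration required for complete inhibition of growth.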

Columns and labels:
Assay in all cases: NCI tumour cell line growth inhibition, 48 h
[1] = tested on: IGROV1 ovarian
[2] = tested on: CAKI-1 renal
[3] = tested on: HCT-116 colon
[4] = tested on: BT-549 breast
[5] = tested on: OVCAR-4 ovarian
[6] = tested on: A549 NSCLC
[7] = tested on: SR leukemia
[8] = tested on: HL-60(TB) leukemia
[9] = tested on: HOP-92 NSCLC
[10] = tested on: MCF7 breast

Structure (SMILES)	TGI [1] [µM]	TGI [2] [µM]	GI50 [3] [µM]	TGI [3] [µM]	TGI [4] [µM]	TGI [5] [µM]	TGI [6] [µM]	TGI [7] [µM]	TGI [8] [µM]	TGI [9] [µM]	TGI [10] [µM]	GI50 [1] [µM]	GI50 [2] [µM]	GI50 [4] [µM]	GI50 [5] [µM]	GI50 [6] [µM]	GI50 [7] [µM]	GI50 [8] [µM]	GI50 [9] [µM]	GI50 [10] [µM]
CCCCCCNC(=O)c1cc(CCc2cc(O)ccc2O)ccc1O	5.66	13.6	3.59	13.6	4.35	6.75	36.3	> 29	4.11	3.87	12.4	–	–	–	–	–	–	–	–	–
C/C(=C\c1ccccc1)C(=O)NCc1ccc(C(=O)NCCC(C)C)cc1	> 100	> 100	–	> 100	> 100	> 100	> 100	–	–	> 100	> 100	–	–	–	–	–	–	–	–	–
CN(c1cc2ncc(=O)[nH]c2cc1NC(N)=NCc1ccc(Cl)cc1)C1CCCCC1	15	14.5	5.44	12.3	14.6	17.2	18.8	5.23	12.7	5.95	7.52	6.93	7.47	7.4	6.21	9.11	1.49	5.36	0.793	1.75
O=C(C=P(c1ccccc1)(c1ccccc1)c1ccccc1)c1cccc(-c2cccc([N+](=O)[O-])c2)c1	38.4	6.26	–	> 100	> 100	15.5	> 100	–	4.82	5.77	> 100	–	–	–	–	–	–	–	–	–
CSc1nc(NC2OCC(OC(C)=O)C(OC(C)=O)C2OC(C)=O)c(N=C(C)C(C)=O)c(=O)[nH]1 (configuration not stated)	> 100	> 100	–	> 100	–	> 100	> 100	> 100	> 100	> 100	–	–	–	–	–	–	–	–	–	–
Cc1nc2c(n1C)C(=O)c1nc(CBr)[nH]c(=O)c1C2=O	> 100	–	–	> 100	–	–	> 100	–	> 100	> 100	–	–	–	–	–	–	–	–	–	–
COc1cc(/C=N/n2c(Cc3ccc(Cl)cc3)n[nH]c2=O)cc(OC)c1OC	–	> 100	–	> 100	> 100	> 100	> 100	–	–	–	> 100	–	–	–	–	–	–	–	–	–
N#CC(c1nc2ccccc2s1)c1ncnc(Cl)c1[N+](=O)[O-] (configuration not stated)	30.5	> 100	–	26.4	56.3	> 100	> 100	–	–	42.8	–	–	–	–	–	–	–	–	–	–
COc1ccc(C2CC(c3cccc(Nc4ccncc4)c3)=NN2c2ccc(Cl)cc2)cc1 (configuration not stated)	3.28	2.64	1.65	3.36	4	3.06	3.65	3.38	4.06	2.44	3.63	1.68	1.32	1.92	1.58	1.87	1.35	1.91	1.12	1.83
N/C(=N\S(=O)(=O)c1cccc2nsnc12)Nc1ccc(Cl)cc1	> 100	–	–	> 100	> 100	> 100	> 100	> 100	78	56.5	> 100	–	–	–	–	–	–	–	–	–
CC(C)(C)OC(=O)NCC(=O)NC1c2ccsc2/C(=N/O)[C@H]1O (some centres not stated)	> 100	> 100	–	> 100	> 100	> 100	> 100	> 100	> 100	> 100	> 100	–	–	–	–	–	–	–	–	–
N#Cc1c(NC(=S)Nc2ccc(Cl)cc2)sc2c1CCCC2	> 100	> 100	–	> 100	> 100	> 100	–	89.1	> 100	–	> 100	–	–	–	–	–	–	–	–	–
COCO[C@@H]1C[C@H]2C(=O)N(COC)c3ccccc3C(=O)N2C1	> 100	> 100	–	> 100	> 100	> 100	> 100	–	> 100	–	> 100	–	–	–	–	–	–	–	–	–
O=C1N(c2ccccc2)C2(c3ccccc3)CC3CCCC13S2 (configuration not stated)	> 100	> 100	–	> 100	> 100	> 100	> 100	> 100	61.3	> 100	> 100	–	–	–	–	–	–	–	–	–
C=CCc1cc(-c2cc(CC=C)c(O)c(CNC)c2)cc(CNC)c1O	32.7	–	–	28.1	–	30.4	33	–	35.2	23.3	–	–	–	–	–	–	–	–	–	–
CC(=O)Oc1c(C)c2c(O)c3c1C1=C(OCOC1=C(C)C3=O)/C(C)=C\C(C)(O)C(O)C(C)C(O)C1C(=O)OC(C(C)C1O)C(C)(O)/C=C/C=C(C)C(=O)N2 (configuration not stated)	52.7	64.5	–	> 100	> 100	–	> 100	83.3	7.3	> 100	> 100	–	–	–	–	–	–	–	–	–
COC(=O)c1cc2c3c(cc(N(C)C)c2[nH]1)N(C(=O)c1cc2cc(OC)c(OC)c(OC)c2[nH]1)CC3CCl (configuration not stated)	–	< 0.0025	–	< 0.0025	0.193	0.00605	–	–	–	0.756	2.42	–	–	–	–	–	–	–	–	–
COc1ccc2c(c1)CCN=C2Cc1cc(OC)c(OC)cc1CCCl	> 100	> 100	–	> 100	> 100	> 100	> 100	> 100	–	> 100	> 100	–	–	–	–	–	–	–	–	–
C#CCn1ncc2c(SC)ncnc21	> 100	> 100	–	> 100	> 100	> 100	> 100	> 100	–	> 100	> 100	–	–	–	–	–	–	–	–	–
O=S1(=O)C(c2ccccc2)C(N2CCCCC2)C1C1CC2c3ccccc3C1c1ccccc12 (configuration not stated)	> 100	> 100	–	> 100	> 100	> 100	> 100	> 100	> 100	> 100	> 100	–	–	–	–	–	–	–	–	–
OC1(c2ccc(Cl)cc2)c2c(ccc3c2OCO3)C2=NCCN21 (configuration not stated)	54.9	> 100	–	> 100	> 100	> 100	> 100	53	> 100	73.5	> 100	–	–	–	–	–	–	–	–	–

Structure (SMILES)	TGI [1] [µM]	TGI [2] [µM]	GI50 [3] [µM]	TGI [3] [µM]	TGI [4] [µM]	TGI [5] [µM]	TGI [6] [µM]	TGI [7] [µM]	TGI [8] [µM]	TGI [9] [µM]	TGI [10] [µM]	GI50 [1] [µM]	GI50 [2] [µM]	GI50 [4] [µM]	GI50 [5] [µM]	GI50 [6] [µM]	GI50 [7] [µM]	GI50 [8] [µM]	GI50 [9] [µM]	GI50 [10] [µM]
COc1cc(/C=C2/SC(c3ccccc3)N(c3cccc(Cl)c3)C2=O)cc(OC)c1OC (configuration not stated)	–	> 100	–	34.8	72	> 100	> 100	81.8	> 100	77.4	> 100	–	–	–	–	–	–	–	–	–
O=C1CS(=O)(=O)C(c2cccc(Oc3ccccc3)c2)N1c1cccc(Cl)c1 (configuration not stated)	69.9	83.5	–	29.6	93.2	> 100	> 100	41.2	> 100	40.5	32.4	–	–	–	–	–	–	–	–	–
O=c1cc(-c2ccc(O)cc2)n(C2CC2)c2ccccc12	> 100	20.8	–	13.1	–	–	18.5	> 100	81.6	19.8	35.5	–	–	–	–	–	–	–	–	–
CCCCCCCCCCCCCCCc1ccc(OCC(O)CO)cc1 (configuration not stated)	> 100	> 100	–	31.3	–	40.8	50.1	> 100	85	47.8	–	–	–	–	–	–	–	–	–	–
Nc1cc2c(nnn2C2OC(COCc3ccccc3)C(OCc3ccccc3)C2OCc2ccccc2)c(=O)[nH]1 (configuration not stated)	> 100	> 100	–	46.9	90.3	> 100	> 100	35.6	28.1	> 100	83.9	–	–	–	–	–	–	–	–	–
N#Cc1c2c(c(Nc3cccc(C(F)(F)F)c3)n3c1nc1ccccc13)CCC2	–	> 100	–	> 100	> 100	> 100	–	–	–	> 100	–	–	–	–	–	–	–	–	–	–
CS(=O)(=O)OC1CN2CCC1CC2 (configuration not stated)	> 100	> 100	–	> 100	> 100	> 100	> 100	> 100	> 100	> 100	> 100	–	–	–	–	–	–	–	–	–
Cc1ccc(NP(=O)(Oc2ccccc2)N(CCCl)CCCl)cc1 (configuration not stated)	> 100	> 100	–	> 100	–	> 100	> 100	> 100	> 100	> 100	–	–	–	–	–	–	–	–	–	–
Cc1cc2c(cc1Cl)SC(c1ccccc1)C(=O)NS2(=O)=O (configuration not stated)	> 100	> 100	–	45.6	–	> 100	–	73.8	58.9	> 100	> 100	–	–	–	–	–	–	–	–	–
N#CC(c1ccnc(Cl)n1)c1nc2ccccc2s1 (configuration not stated)	> 53.2	> 45.4	–	9.38	> 26	> 100	52.4	28.7	5.43	14.1	40.6	–	–	–	–	–	–	–	–	–
CC(=O)c1c(SCCN2CCCC2)n(-c2ccccc2)c(=S)n(-c2ccccc2)c1=O	19.4	10.2	–	18.6	28.6	> 90.7	15.1	> 100	6.93	18.2	3.01	–	–	–	–	–	–	–	–	–
CCN(CC)CCCC(C)Nc1ccnc2cc3ccccc3cc12 (configuration not stated)	50.7	42.2	–	> 100	29.2	7.92	> 100	> 100	75.9	> 100	39	–	–	–	–	–	–	–	–	–
Cc1cccc2cc3c(ccc4ccccc43)c[n+]12	> 100	–	–	> 100	54.1	–	> 100	> 100	> 100	–	> 100	–	–	–	–	–	–	–	–	–
Nc1ccc(-c2cssc2=S)cc1	> 100	> 100	–	> 100	> 100	> 100	> 100	–	62.5	> 100	> 100	–	–	–	–	–	–	–	–	–
Cn1c(-c2cccs2)cc(-c2ccccc2)c1-c1cccs1	> 100	> 100	–	> 100	> 100	> 100	45.7	> 100	> 100	> 100	> 100	–	–	–	–	–	–	–	–	–
CC(=O)Nc1ccc(N=C2C(c3ccccc3)=C(SC3=C(c4ccccc4)C(=Nc4ccc(NC(C)=O)cc4)c4ccccc43)c3ccccc32)cc1	> 100	> 100	–	> 100	73.1	> 100	> 100	> 100	–	> 100	> 100	–	–	–	–	–	–	–	–	–
CN(C)c1nc(N(C)C)nc(N(C)CN(C)c2ccc(Cl)cc2)n1	> 100	–	–	> 100	–	> 100	> 100	–	> 100	–	–	–	–	–	–	–	–	–	–	–
CO/C=C(/C(=O)OC)c1ccccc1[C@@H]1CC1c1cccc(F)c1 (some centres not stated)	62.8	70.4	–	77.3	61.4	96.7	78.5	> 100	57.9	> 100	> 100	–	–	–	–	–	–	–	–	–
O=C(N/N=C(/COc1ccc(Cl)cc1)N=Cc1cccnc1)c1ccncc1	> 100	> 100	–	> 100	> 100	> 100	> 100	–	> 100	84.5	> 100	–	–	–	–	–	–	–	–	–
CCN1C=C/C(=C\C=C/c2cc[n+](CC)c3ccccc23)c2ccccc21	12.4	–	–	13.4	51.2	16.9	21.2	9.65	15.1	37.5	20	–	–	–	–	–	–	–	–	–
